Data published in ChEMBL document CHEMBL4265938, “Donepezil-based multi-functional cholinesterase inhibitors for treatment of Alzheimer's disease” (Eur J Med Chem, 2018).
pIC50: −log10 of the molar value.

How the values were obtained:
[1] = molecular target: T1, Acetylcholinesterase (Homo sapiens, UniProt P22303); test: Inhibition of recombinant human AChE using acetylthiocholine iodide as substrate preincubated for 20 mins followed by substrate addition measured after 5 mins by Ellman's method
[2] = molecular target: T2, Acetylcholinesterase (Electrophorus electricus, UniProt O42275); test: Inhibition of electric eel AChE using acetylthiocholine iodide as substrate preincubated for 20 mins followed by substrate addition measured after 5 mins by Ellman's method
[3] = molecular target: T3, Amine oxidase [flavin-containing] B (Homo sapiens, UniProt P27338); test: Inhibition of recombinant human MAOB using tyramine hydrochloride as substrate preincubated for 30 mins followed by substrate addition measured for 1 hr by fluorometric method
T3 sequence (P27338 whole entry): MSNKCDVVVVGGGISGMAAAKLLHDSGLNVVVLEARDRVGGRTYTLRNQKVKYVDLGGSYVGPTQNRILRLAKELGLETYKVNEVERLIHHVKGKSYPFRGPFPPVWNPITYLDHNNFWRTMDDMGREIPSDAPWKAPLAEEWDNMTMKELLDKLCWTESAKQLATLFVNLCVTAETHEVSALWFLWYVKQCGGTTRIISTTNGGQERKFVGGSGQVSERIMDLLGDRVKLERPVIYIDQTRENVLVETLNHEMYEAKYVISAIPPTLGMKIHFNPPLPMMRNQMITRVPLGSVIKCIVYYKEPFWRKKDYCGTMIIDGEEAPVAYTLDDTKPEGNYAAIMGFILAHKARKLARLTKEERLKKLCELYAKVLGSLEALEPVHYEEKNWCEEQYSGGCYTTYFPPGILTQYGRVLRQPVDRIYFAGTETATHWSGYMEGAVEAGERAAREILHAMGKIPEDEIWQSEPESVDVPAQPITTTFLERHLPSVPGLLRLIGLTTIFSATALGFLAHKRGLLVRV

[4] = molecular target: T4, Cholinesterase (Equus caballus, UniProt P81908); test: Inhibition of equine serum BuChE using butyrylthiocholine iodide as substrate preincubated for 20 mins followed by substrate addition measured after 30 mins by Ellman's method
[5] = molecular target: T4, Cholinesterase; test: Inhibition of equine serum BuChE
[6] = molecular target: T2, Acetylcholinesterase; test: Inhibition of electric eel AChE
[7] = molecular target: T5, Amine oxidase [flavin-containing] A (Homo sapiens, UniProt P21397); test: Inhibition of human MAOA
T5 sequence (P21397 whole entry): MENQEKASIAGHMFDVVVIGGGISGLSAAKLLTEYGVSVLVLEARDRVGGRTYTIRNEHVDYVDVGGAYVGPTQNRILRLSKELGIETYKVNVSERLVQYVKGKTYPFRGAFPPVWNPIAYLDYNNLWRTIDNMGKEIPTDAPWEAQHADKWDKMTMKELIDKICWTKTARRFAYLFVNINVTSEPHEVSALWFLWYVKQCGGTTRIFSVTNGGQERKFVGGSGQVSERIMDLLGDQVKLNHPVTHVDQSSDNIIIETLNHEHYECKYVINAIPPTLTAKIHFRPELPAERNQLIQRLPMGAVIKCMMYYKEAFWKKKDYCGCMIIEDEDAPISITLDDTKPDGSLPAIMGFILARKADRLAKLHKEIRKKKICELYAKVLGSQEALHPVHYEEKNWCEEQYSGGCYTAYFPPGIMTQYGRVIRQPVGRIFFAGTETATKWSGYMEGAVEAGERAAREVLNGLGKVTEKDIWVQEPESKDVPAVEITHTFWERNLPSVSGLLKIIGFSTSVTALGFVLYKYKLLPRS

[8] = Effective permeability of the compound; assay type: ADME; details: not told; read-out: Peff
[9] = molecular target: T3, Amine oxidase [flavin-containing] B; test: Inhibition of human MAOB
[10] = Selectivity ratio of IC50 for electric eel AChE to IC50 for equine serum BuChE
[11] = molecular target: T2, Acetylcholinesterase; test: Mixed type inhibition of electric eel AChE
[12] = molecular target: T4, Cholinesterase; test: Mixed type inhibition of equine serum BuChE
[13] = molecular target: T1, Acetylcholinesterase; test: Inhibition of recombinant human AChE using acetylthiocholine iodide as substrate preincubated for 5 mins followed by substrate addition measured after 5 mins by Ellman's method
[14] = molecular target: T2, Acetylcholinesterase; test: Inhibition of electric eel AChE using acetylthiocholine iodide as substrate preincubated for 5 mins followed by substrate addition measured after 5 mins by Ellman's method
[15] = molecular target: Amyloid-beta precursor protein (Homo sapiens) (UniProt P05067); test: Inhibition of recombinant human HFIP-pretreated amyloid beta (1 to 42) self aggregation at 10 uM after 24 hrs by ThT-based fluorometric method relative to control
[16] = molecular target: Beta-secretase 1 (Homo sapiens, UniProt P56817); test: Inhibition of BACE-1 (unknown origin)
[17] = Antioxidant activity assessed as trolox equivalent of AAPH-induced radical scavenging activity at 70 nM preincubated for 15 mins followed by AAPH addition measured every min for 80 mins by ORAC-FL assay; assay type: functional

T4 sequence (P81908 whole entry): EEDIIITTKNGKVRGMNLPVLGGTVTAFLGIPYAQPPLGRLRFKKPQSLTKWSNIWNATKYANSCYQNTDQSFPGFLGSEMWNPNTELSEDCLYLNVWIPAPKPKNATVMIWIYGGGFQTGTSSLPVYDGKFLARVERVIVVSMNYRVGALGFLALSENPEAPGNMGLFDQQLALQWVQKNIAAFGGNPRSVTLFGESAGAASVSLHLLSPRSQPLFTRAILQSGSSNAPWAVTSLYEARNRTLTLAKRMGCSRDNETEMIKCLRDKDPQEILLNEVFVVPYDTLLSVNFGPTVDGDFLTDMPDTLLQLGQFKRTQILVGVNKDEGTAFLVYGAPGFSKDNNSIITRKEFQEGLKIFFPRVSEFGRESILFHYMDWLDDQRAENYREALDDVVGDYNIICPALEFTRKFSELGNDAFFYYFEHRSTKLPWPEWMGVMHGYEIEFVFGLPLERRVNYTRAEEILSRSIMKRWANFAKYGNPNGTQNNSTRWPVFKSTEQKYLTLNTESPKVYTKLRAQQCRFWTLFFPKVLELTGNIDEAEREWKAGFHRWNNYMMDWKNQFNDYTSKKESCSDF
T2 sequence (O42275 whole entry): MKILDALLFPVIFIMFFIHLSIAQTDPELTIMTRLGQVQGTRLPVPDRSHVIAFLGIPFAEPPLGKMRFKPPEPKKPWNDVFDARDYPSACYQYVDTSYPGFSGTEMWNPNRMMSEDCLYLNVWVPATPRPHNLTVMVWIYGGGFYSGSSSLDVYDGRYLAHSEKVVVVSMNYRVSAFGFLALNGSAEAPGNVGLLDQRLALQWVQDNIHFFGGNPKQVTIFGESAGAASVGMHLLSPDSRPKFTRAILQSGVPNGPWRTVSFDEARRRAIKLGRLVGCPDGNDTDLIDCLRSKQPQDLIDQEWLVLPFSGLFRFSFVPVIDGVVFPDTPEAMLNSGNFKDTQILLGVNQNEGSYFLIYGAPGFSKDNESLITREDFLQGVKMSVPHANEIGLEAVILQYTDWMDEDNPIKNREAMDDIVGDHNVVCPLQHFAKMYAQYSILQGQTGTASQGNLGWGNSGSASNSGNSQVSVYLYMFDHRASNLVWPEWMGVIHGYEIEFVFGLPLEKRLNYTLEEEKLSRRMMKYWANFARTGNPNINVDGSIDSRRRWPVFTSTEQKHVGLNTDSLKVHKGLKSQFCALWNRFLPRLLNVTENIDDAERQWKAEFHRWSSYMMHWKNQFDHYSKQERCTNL
Beta-secretase 1, sequence (P56817 whole entry): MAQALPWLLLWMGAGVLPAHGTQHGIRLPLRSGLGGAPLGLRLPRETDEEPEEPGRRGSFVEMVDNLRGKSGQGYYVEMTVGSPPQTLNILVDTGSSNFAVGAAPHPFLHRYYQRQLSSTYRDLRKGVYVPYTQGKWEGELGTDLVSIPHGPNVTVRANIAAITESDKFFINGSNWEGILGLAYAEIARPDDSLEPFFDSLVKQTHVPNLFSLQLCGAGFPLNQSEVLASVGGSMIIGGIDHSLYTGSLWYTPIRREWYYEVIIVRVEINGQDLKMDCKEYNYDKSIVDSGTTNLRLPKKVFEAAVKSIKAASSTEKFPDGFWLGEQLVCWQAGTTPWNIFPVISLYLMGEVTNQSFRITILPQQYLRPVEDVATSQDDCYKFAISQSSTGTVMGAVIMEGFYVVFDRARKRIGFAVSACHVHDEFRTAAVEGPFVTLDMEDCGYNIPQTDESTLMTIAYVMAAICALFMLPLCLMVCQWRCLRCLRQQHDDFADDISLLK
T1 sequence (P22303 whole entry): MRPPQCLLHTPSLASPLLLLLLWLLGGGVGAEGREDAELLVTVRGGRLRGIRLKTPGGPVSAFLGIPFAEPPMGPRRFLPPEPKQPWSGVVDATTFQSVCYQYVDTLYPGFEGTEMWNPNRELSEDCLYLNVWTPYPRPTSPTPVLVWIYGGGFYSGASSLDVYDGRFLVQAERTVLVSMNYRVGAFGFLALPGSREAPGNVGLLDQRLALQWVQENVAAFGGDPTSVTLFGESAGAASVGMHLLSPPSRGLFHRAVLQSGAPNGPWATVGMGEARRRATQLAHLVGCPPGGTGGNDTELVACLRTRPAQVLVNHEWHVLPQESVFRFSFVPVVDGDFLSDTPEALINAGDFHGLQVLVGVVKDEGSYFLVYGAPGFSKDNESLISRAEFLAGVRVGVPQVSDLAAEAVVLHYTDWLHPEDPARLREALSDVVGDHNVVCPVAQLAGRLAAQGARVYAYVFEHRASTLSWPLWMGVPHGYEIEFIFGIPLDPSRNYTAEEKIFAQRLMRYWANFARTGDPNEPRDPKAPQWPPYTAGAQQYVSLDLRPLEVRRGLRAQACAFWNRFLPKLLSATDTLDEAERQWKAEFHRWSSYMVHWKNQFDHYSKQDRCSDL
Amyloid-beta precursor protein (Homo sapiens), sequence (P05067 whole entry): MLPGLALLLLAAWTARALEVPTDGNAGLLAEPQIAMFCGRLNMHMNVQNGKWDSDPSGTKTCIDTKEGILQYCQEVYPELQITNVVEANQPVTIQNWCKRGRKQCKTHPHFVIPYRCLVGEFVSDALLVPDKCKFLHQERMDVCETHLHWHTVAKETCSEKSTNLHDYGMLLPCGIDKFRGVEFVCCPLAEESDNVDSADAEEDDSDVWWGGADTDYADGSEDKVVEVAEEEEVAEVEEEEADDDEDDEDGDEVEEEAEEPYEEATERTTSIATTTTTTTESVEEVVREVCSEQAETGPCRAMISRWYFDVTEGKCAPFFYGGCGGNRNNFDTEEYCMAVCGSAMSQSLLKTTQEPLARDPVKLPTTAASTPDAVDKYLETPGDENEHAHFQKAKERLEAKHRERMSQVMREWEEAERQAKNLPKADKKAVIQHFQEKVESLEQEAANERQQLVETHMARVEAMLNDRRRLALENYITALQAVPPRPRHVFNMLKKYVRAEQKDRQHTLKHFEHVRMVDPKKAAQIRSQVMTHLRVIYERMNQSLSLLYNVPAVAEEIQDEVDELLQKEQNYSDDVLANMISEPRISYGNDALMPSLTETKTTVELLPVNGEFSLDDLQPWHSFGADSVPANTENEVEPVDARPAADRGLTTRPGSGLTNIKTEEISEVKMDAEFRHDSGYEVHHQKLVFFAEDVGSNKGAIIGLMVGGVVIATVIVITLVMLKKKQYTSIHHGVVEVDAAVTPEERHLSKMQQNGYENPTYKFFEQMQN

Question: With C#CCNc1nc(NCCCCC2CCN(Cc3ccccc3)CC2)c(C#N)cc1C#N as the molecule, how does the pIC50 [1] read?
Answer: 9.00

Question: With C#CCNc1nc(NCCCC2CCN(Cc3ccccc3)CC2)c(C#N)cc1C#N as the molecule, how does the pIC50 [2] read?
Answer: 8.96

Question: What about the pIC50 [3] of the same molecule?
Answer: 5.40

Question: What about the pIC50 [4] of the same molecule?
Answer: 6.22

Question: Which results are given for O=C(NCCC1CCN(Cc2ccccc2)CC1)c1ccc(Cl)cn1?
Answer: pIC50 [5]: 5.91; pIC50 [6]: 6.66; pIC50 [7]: 4.87; Papp [8]: 10.4 ×10⁻⁶ cm/s; pIC50 [9]: 5.50

Question: Which results are given for Cn1c(=O)n(C)c2cc(S(=O)(=O)NCC3CCN(Cc4ccc(F)cc4)CC3)ccc21?
Answer: Ratio IC50 [10]: 66.1; pIC50 [11]: 5.69; pIC50 [12]: 7.51

Question: With CN(CCCCCN1C(=O)c2ccccc2S1(=O)=O)Cc1ccccc1 as the molecule, how does the pIC50 [13] read?
Answer: 7.48

Question: What about the pIC50 [14] of the same molecule?
Answer: 7.44

Question: What about the inhibition [15] of the same molecule?
Answer: 22.2%

Question: With COc1ccc2c(c1)C/C(=C\C1CCN(Cc3ccccc3)CC1)C2=O as the molecule, how does the pIC50 [16] read?
Answer: 6.48

Question: With COc1cc(/C=C/C(=O)N(CCCC2CCN(Cc3ccccc3)CC2)CC(=O)Nc2c(C)cccc2Cl)ccc1O as the molecule, how does the pIC50 [5] read?
Answer: 7.28

Question: And the pIC50 [6]?
Answer: 7.53

Question: And the Activity [17]?
Answer: 5.32 equiv

Question: With COc1cc2c(cc1OC)C(=O)/C(=C/C1CCN(Cc3ccccc3)CC1)C2 as the molecule, how does the pIC50 [16] read?
Answer: 6.16
